Results as given in ChEMBL document CHEMBL1140257, “Potential new antitumor agents from an innovative combination of camphorato, a ramification of traditional Chinese medicine, with a platinum moiety” (Bioorg Med Chem Lett, 2005).

Legend:
Bel-7402 = assay: In vitro Inhibitory concentration against BEL-7402 human hepatocarcinoma cell line; Tested by sulforhodamine B colorimetric assay; format: functional, cell-based
HL-60 = assay: In vitro Inhibitory concentration against HL-60 human leukemia cell line; Tested by trypan blue exclusion test; format: functional, cell-based
A549 = assay: In vitro Inhibitory Concentration against A549 human lung carcinoma cell line; Tested by sulforhodamine B colorimetric assay; format: functional, cell-based
[1] = In vitro Inhibitory concentration against 3AO human ovarian carcinoma cell line; Tested by sulforhodamine B colorimetric assay; format: functional
Homo sapiens [2] = assay: Ratio of TRTV and CRTV at 9 (mg/kgper dose) in LS-174T human colon carcinoma implanted in mice; (TRTV=relative tumor volume of the treated group; CRTV=relative tumor volume of the control group); format: functional, organism-based
Homo sapiens [3] = assay: Ratio of TRTV and CRTV at 6 (mg/kgper dose) in LS-174T human colon carcinoma implanted in mice; (TRTV=relative tumor volume of the treated group; CRTV=relative tumor volume of the control group); format: functional, organism-based
Homo sapiens [4] = assay: In vivo antitumor activity against LS-174T human colon carcinoma in mice at 6 (mg/kgper dose); format: functional, organism-based
Homo sapiens [5] = assay: In vivo antitumor activity against LS-174T human colon carcinoma in mice at 9 (mg/kgper dose); format: functional, organism-based

CARBOPLATIN
IC50 (Bel-7402): 36.1 µM
IC50 (HL-60): 2.86 µM
IC50 (A549): 42.3 µM
IC50 [1]: 29.1 µM

CISPLATIN
IC50 (Bel-7402): 0.77 µM
IC50 (HL-60): 0.33 µM
IC50 (A549): 2.23 µM
IC50 [1]: 0.47 µM

OXALIPLATIN
T/C (Homo sapiens [2]): 50.8%
T/C (Homo sapiens [3]): 87.4%
Inhibition tumor index (Homo sapiens [4]): 24%
Inhibition tumor index (Homo sapiens [5]): 51%
